# Assay results reported in publication PMC10208956, “Microbial peptides activate tumour-infiltrating lymphocytes in glioblastoma” (Nature, 2023).
# Key:
# Assay type in all cases: cell-based, human
# TCC8F7 = test: Proliferation of TCC8F7, 3H-thymidine (SI), 3 days; conditions: irradiated autologous PBMCs as APCs, Extended Data Fig. 5d
# [1] = system: isolated TIL-derived CD4+ TCCs; test: All isolated TCCs tested against SIN3A* peptide: proliferation (SI); conditions: for SI: proliferation, sheet 2b
# [2] = system: sorted CD4+ PE and FITC TCRVβ+ TILs; test: Proliferation of TCRBV-sorted CD4+ TILs (without TCRBV6.1 and TCRBV6.2); conditions: sheet 6b
# Source text: TILs expressing specific TCRBVs were isolated from bulk TILs using a panel of 22 fluorescently labelled TCRBV antibodies that detect 27 different TCRBVs. Twelve TCRBV antibodies were labelled with PE and 10 with FITC (Beckman Coulter). […] After another wash, cells were stained with CD4 (1:100) (APC anti-human CD4, eBioscience), CD8 (1:100) (Pacific blue anti-human CD8, BioLegend), TCRBV-PE (1:25) (Beckman Coulter) and TCRBV-FITC (1:25) (Beckman Coulter) antibodies (Supplementary Table 12) for 30 min. Finally, cells were sorted, seeded at 5 × 10^4 cells per well in T cell medium without h-IL-2 and rested for 1 day before stimulation with 2 × 10^5 cells per well of irradiated autologous PBMCs (45 Gy) and peptide (10 µM).
# Two populations of CD4^+ PE-TCRVβ^+ and CD4^+ FITC-TCRVβ^+ were sorted and later mixed together. […] Specific amount of each cytokine/chemokine (pg/ml) was calculated by subtracting the cytokines in the negative control cultures (no peptide control). Source data
substance,measurement,setting,value
Ac-QPVEFNHAIHYVN-NH2 [SIN3A*],response of TCC8F7 (in words),TCC8F7,strongly responds
same,SI,[1]; TCC4,326.128
same,SI,[1]; TCC11,238.815
same,SI,[1]; TCC12,287.573
same,SI,[1]; TCC13,453.401
same,SI,[1]; TCC15,28.5845
same,SI,[1]; TCC16,23.5776
same,SI,[1]; TCC20,244.524
same,SI,[1]; TCC29,34.8583
same,SI,[1]; TCC31,128.595
same,SI,[1]; TCC32,5.805
same,SI,[1]; TCC33,313.375
same,SI,[1]; TCC35,7.243
same,SI,[1]; TCC37,2.779
same,SI,[1]; TCC38,611.635
same,SI,[1]; TCC43,28.9619
same,SI,[1]; TCC47,29.6013
same,SI,[1]; TCC52,25.0598
same,SI,[1]; TCC56,22.816
same,SI,[1]; TCC57,3.669
same,SI,[1]; TCC60,23.5877
same,SI,[1]; TCC63,17.3519
same,SI,[1]; TCC67,7.121
same,SI,[1]; TCC68,7.155
same,SI,[1]; TCC72,5.137
same,SI,[1]; TCC75,11.5536
same,SI,[1]; TCC76,2.574
same,SI,[1]; TCC88,34.5634
same,SI,[1]; TCC89,2.064
same,SI,[1]; TCC90,56.5299
same,SI,[1]; TCC91,28.9154
same,SI,[1]; TCC92,23.8373
same,SI,[1]; TCC93,31.4988
same,SI,[1]; TCC94,41.408
same,SI,[1]; TCC96,17.6927
same,SI,[1]; TCC97,56.4388
same,SI,[1]; TCC98,67.9438
same,SI,[1]; TCC99,7.081
same,SI,[1]; TCC101,5.504
same,SI,[1]; TCC102,3.298
same,SI,[1]; TCC103,23.6756
same,SI,[1]; TCC104,20.3791
same,SI,[1]; TCC107,14.7872
same,SI,[1]; TCC109,67.7177
same,SI,[1]; TCC110,38.4196
same,SI,[1]; TCC111,16.0477
same,SI,[1]; TCC112,3.861
same,SI,[1]; TCC113,9.948
same,SI,[1]; TCC114,19.6549
same,SI,[1]; TCC115,9.682
same,SI,[1]; TCC116,36.7042
same,SI,[1]; TCC118,2.382
same,SI,[1]; TCC120,8.436
same,SI,[1]; TCC121,46.4714
same,SI,[1]; TCC124,44.5013
same,SI,[1]; TCC126,30.498
same,SI,[1]; TCC127,40.4213
same,SI,[1]; TCC128,20.9837
same,SI,[1]; TCC129,2.6751
same,SI,[1]; TCC130,24.2362
same,SI,[1]; TCC132,2.2794
same,SI,[1]; TCC133,8.094
same,SI,[1]; TCC134,2.175
same,SI,[1]; TCC135,13.0838
same,SI,[1]; TCC137,37.685
same,SI,[1]; TCC138,0.96
same,CD4+ TCCs that responded by proliferation or production of IFNγ,"[1]; TCCs isolated from SIN3A*-stimulated TILs, 3 days, Fig. 2b",70 out of 124
same,Proliferation (SI) of sorted CD4+ TILs,[2]; replicate 1,9.2018
same,Proliferation (SI) of sorted CD4+ TILs,[2]; replicate 2,10.7366
same,Proliferation (SI) of sorted CD4+ TILs,[2]; replicate 3,6.162
